This note sets out measurements from patent US9096639B2, “17-hydroxy-17-pentafluorethyl-estra-4,9(10)-dien-11-acyloxyalkylene phenyl derivatives, methods for the production thereof and use thereof for treating diseases” (Bayer Intellectual Property GmbH, priority 2009, dated 2015).

Data set [1] can be described thus: Determination of hydrolytic stability (5:1 dioxane/buffer, HPLC). It is filed as physicochemical. Particulars: 5:1 dioxane/buffer solution, test ended after 24 or 192 hours, read-out: Hydrolytic stability t1/2. The method, then: The ester to be analyzed was dissolved in each case in a 5:1 mixture of dioxane and buffer solution (pH 1.2, pH 5.0 or pH 8.0) at 23° C. At different times, the content of ester and hydrolysis products (8S,11R,13S,14S,1 7S)-17-hydroxy-11-[4-((R)-1-hydroxyethyl)phenyl]-13-methyl-17-pentafluoroethyl-1,2,6,7,8,11,12,13,14,15,16,17-dodecahydrocyclopenta[a]phenanthren-3-one and/or (8S,11R,13S,14S,17S)-17-hydroxy-11-[4-((S)-1-hydroxyethyl)phenyl]-1 3-methyl-17-pentafluoroethyl-1,2,6,7,8,11,12,13,14,15,16,17-dodecahydrocyclopenta[a]phenanthren-3-one was determined by HPLC. The test was ended after 24 hours or 192 hours.

Data set [2] in a line: Determination of stability in human plasma. The data set is classed as in vitro ADME. The method, then: (§1) A stock solution of 1.0 mg of the substance to be tested in a 9:1 mixture of acetonitrile and dimethyl sulphoxide was prepared. 20 μl of this stock solution were added at 37° C. to 1 ml of human plasma or rat plasma. To determine the content, 100 μl samples were each taken at different times. The enzyme activity was blocked by adding 300 μl of acetonitrile, the samples were centrifuged at 5000 rpm over 10 minutes and, in the supernatant, the content of ester and hydrolysis products (8S,11R,13S,14S,17S)-17-hydroxy-11-[4-((R)-1-hydroxyethyl)phenyl]-1 3-methyl-17-pentafluoroethyl-1,2,6,7,8,11,12,13,14,15,16,17-dodecahydrocyclopenta[a]phenanthren-3-one and/or (8S,11R,13S,14S,17S)-17-hydroxy-11-[4-((S)-1-hydroxyethyl)phenyl]-13-methyl-17-pentafluoroethyl-1,2,6,7,8,11,12,13,14,15,16,17-dodecahydrocyclopenta[a]phenanthrene-3-one was determined by HPLC. The concentration-time curves were used to calculate the degradation kinetics. The stability of the substance tested was reported as the half-life.

A short description of data set [3]: Determination of stability in rat plasma. Particulars: 37° C., read-out: Stability t1/2 in rat plasma (converted). The data set is classed as in vitro ADME. As to the method: as §1
Data set [4] deals with T1, human progesterone receptor A (Homo sapiens, UniProt P06401).
T1 construct: expressed in transfected cells; host or cells: SK-N-MC human neuroblastoma cells, stably transfected with pRChPR-A-neo and pMMTV-LUC
T1 sequence (P06401 1-769 isoform P06401-2): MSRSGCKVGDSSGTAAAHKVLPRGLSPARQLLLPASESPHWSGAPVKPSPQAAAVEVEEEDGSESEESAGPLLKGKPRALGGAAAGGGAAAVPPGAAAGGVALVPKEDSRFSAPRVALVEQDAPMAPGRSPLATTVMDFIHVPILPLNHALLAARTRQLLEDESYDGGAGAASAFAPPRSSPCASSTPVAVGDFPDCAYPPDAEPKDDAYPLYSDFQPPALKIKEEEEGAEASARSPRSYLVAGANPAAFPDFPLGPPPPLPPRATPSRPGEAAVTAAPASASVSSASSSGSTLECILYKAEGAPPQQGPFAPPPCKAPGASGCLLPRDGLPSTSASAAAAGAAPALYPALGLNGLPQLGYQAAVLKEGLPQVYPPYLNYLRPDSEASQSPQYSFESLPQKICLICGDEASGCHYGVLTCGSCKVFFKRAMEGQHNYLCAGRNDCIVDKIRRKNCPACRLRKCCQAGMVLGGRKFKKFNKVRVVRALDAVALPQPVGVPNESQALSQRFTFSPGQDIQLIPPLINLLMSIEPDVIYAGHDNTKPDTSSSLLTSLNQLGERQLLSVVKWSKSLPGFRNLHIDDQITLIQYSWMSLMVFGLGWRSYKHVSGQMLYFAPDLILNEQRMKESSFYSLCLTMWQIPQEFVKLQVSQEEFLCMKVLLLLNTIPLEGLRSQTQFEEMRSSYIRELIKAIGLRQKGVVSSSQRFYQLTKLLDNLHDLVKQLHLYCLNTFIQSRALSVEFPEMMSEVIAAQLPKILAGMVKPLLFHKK
The data set is described as follows: Progesterone receptor transactivation test in stably transfected SK-N-MC cells (PR-A, MMTV-LUC reporter). It is filed as cell-based. Particulars: 0.1 nmol/l promegestone, 24 hours, read-out: PR-A IC50 (antagonistic potency). The method, then: (§2) Progesterone receptor-antagonistic action in stable transfectants of human neuroblastoma cells (SK-N-MC cells) with the human progesterone A or progesterone B receptor and an MN-LUC reporter construct SK-N-MC cells (human neuroblastoma cells) which have been stably transfected with plasmids expressing the human progesterone receptor B (pRChPR-B-neo) or the human progesterone receptor A (pRChPR-A-neo) and a reporter construct (pMMTV-LUC) were incubated for 24 hours either in the absence (negative control) or in the presence of ascending amounts of the particular test compound (0.01 nmol/l, 0.1 nmol/l, 1 […], 100 nmol/l and […]), in order to determine the agonistic efficacy. As a positive control of the reporter gene induction, the cells were treated with the synthetic gestagen promegestone (0.01 nmol/l, 0.1 nmol/l, 1 nmol/l, 10 nmol/l, 100 nmol/l and […]). To determine the antagonistic activity, the cells were treated with 0.1 nmol/l promegestone and additionally with ascending amounts of the particular test compound (0.01 nmol/l, 0.1 nmol/l, 1 nmol/l, 10 nmol/l, 100 nmol/l and […]). The activity of the reporter gene LUC (LUC=luciferase) was determined in the cell lysates and measured as RLU (relative light units). All measurements are reported as % efficacy and as EC50 and IC50 concentrations.

Data set [5] addresses T2, human progesterone receptor B (Homo sapiens, UniProt P06401).
T2 construct: expressed in transfected cells; host or cells: SK-N-MC human neuroblastoma cells, stably transfected with pRChPR-B-neo and pMMTV-LUC
T2 sequence (P06401 1-933): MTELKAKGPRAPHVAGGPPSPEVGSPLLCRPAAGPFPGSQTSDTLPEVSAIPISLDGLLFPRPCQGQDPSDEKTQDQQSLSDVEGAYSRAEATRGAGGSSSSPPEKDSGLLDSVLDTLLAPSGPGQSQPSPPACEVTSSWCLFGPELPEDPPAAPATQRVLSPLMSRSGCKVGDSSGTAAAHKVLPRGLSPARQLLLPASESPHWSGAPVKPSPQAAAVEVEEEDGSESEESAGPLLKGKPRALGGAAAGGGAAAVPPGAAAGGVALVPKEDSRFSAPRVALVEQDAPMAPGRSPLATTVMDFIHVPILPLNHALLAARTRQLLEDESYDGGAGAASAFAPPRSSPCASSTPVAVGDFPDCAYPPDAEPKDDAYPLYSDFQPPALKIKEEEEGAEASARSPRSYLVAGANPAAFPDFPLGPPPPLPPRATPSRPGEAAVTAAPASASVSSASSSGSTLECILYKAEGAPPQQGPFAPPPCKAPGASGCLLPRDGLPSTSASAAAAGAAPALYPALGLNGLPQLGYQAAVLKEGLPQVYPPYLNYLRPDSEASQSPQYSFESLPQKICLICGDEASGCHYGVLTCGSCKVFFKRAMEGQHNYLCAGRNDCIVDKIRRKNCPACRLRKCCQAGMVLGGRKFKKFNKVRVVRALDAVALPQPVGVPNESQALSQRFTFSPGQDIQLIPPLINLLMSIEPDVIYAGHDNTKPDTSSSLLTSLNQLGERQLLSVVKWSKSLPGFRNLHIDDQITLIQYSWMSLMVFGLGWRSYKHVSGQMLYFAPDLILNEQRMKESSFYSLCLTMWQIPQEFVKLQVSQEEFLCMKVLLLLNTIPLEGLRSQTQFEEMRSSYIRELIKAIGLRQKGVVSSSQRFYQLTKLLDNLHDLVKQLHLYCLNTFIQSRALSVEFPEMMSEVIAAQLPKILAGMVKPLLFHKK
The data set is described as follows: Progesterone receptor transactivation test in stably transfected SK-N-MC cells (PR-B, MMTV-LUC reporter). The data set is classed as cell-based. Particulars: 0.1 nmol/l promegestone, 24 hours, read-out: PR-B IC50 (antagonistic potency). As to the method:
as §2

Molecules are shown by their SMILES.

The IC50 is the concentration needed to halve the response being measured. With `CC(OC(=O)CCc1nccs1)c1ccc([C@H]2C[C@@]3(C)C(CC[C@@]3(O)C(F)(F)C(F)(F)F)C3CCC4=CC(=O)CCC4=C32)cc1` (mixture of isomers) [Example 15, 3-Thiazol-2-ylpropionic acid (RS)-1-[4-((8S,11R,13S,14S,17S)-17-hydroxy-13-methyl-3-oxo-17-pentafluoroethyl-2,3,6,7,8,11,12,13,14,15,16,17-dodecahydro-1H-cyclopenta[a]phenanthren-11-yl)phenyl]ethyl ester], the half-life in data set [1] (pH = 1.2, 23° C.) was over 192 h; in data set [1] (pH = 8.0, 23° C.), over 192 h; in data set [2] (37° C., read-out: Stability t1/2 in human plasma (converted)), 131 h; in data set [2] (method of working example 19, summary statement in description, read-out: half-life in human plasma), over 100 h; in data set [3] it was 1.2 h. Further, the IC50 in data set [4] and in data set [5] was 100 pM in each case.
